Results reported in ChEMBL document CHEMBL1201862, “PubChem BioAssay data set” (2004).
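The compound was tested at five concentrations on cells cultured in 96-well plates, with a 48-hour exposure period. GI50 = concentration required for 50% inhibition of growth.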 Active and inactive are the calls of the source. Rule as the data show it: active = GI50 up to about 1.1 µM and inactive = higher.

Legend:
Experiment in all cases: NCI-60 cell line screen, 48 h
RXF 393 = tested on: RXF 393
OVCAR-8 = tested on: OVCAR-8
M14 = tested on: M14
RXF 631 = tested on: RXF 631
UO-31 = tested on: UO-31
CCRF-CEM = tested on: CCRF-CEM
DMS-273 = tested on: DMS-273
SNB-19 = tested on: SNB-19
SNB-78 = tested on: SNB-78
UACC-257 = tested on: UACC-257
IGROV-1 = tested on: IGROV-1
CAKI-1 = tested on: CAKI-1
SK-MEL-2 = tested on: SK-MEL-2
HT-29 = tested on: HT-29
KM12 = tested on: KM12
KM-20L2 = tested on: KM-20L2
SNB-75 = tested on: SNB-75
A549 = tested on: A549
RPMI-8226 = tested on: RPMI-8226
HL-60 = tested on: HL-60
NCI-H460 = tested on: NCI-H460
DLD-1 = tested on: DLD-1
A498 = tested on: A498
COLO 205 = tested on: COLO 205
MOLT-4 = tested on: MOLT-4
DMS-114 = tested on: DMS-114
SF-539 = tested on: SF-539
HOP-92 = tested on: HOP-92
HCT-15 = tested on: HCT-15
NCI-H226 = tested on: NCI-H226
SF-268 = tested on: SF-268
SN12C = tested on: SN12C
Malme-3M = tested on: Malme-3M
SW-620 = tested on: SW-620
ACHN = tested on: ACHN
LOX IMVI = tested on: LOX IMVI
K562 = tested on: K562
OVCAR-4 = tested on: OVCAR-4
HCC 2998 = tested on: HCC 2998
HCT-116 = tested on: HCT-116
U-251 = tested on: U-251
LXFL 529 = tested on: LXFL 529
NCI-H522 = tested on: NCI-H522
SK-OV-3 = tested on: SK-OV-3
TK-10 = tested on: TK-10
UACC-62 = tested on: UACC-62
M19-MEL = tested on: M19-MEL
EKVX = tested on: EKVX
NCI-H23 = tested on: NCI-H23
OVCAR-3 = tested on: OVCAR-3
SK-MEL-28 = tested on: SK-MEL-28
OVCAR-5 = tested on: OVCAR-5
786-0 = tested on: 786-0
HOP-62 = tested on: HOP-62
SF-295 = tested on: SF-295
SR = tested on: SR
HOP-18 = tested on: HOP-18
SK-MEL-5 = tested on: SK-MEL-5
XF498 = tested on: XF498
NCI/ADR-RES = tested on: NCI/ADR-RES
MCF7 = tested on: MCF7

## COc1cc(CC(=O)O)c([N+](=O)[O-])cc1OC
RXF 393
  GI50: > 100 µM (inactive)
OVCAR-8
  GI50: > 100 µM (inactive)
M14
  GI50: > 100 µM (inactive)
RXF 631
  GI50: > 100 µM (inactive)
UO-31
  GI50: > 100 µM (inactive)
CCRF-CEM
  GI50: > 100 µM (inactive)
DMS-273
  GI50: > 100 µM (inactive)
SNB-19
  GI50: > 100 µM (inactive)
SNB-78
  GI50: > 100 µM (inactive)
UACC-257
  GI50: > 100 µM (inactive)
IGROV-1
  GI50: > 100 µM (inactive)
CAKI-1
  GI50: > 100 µM (inactive)
SK-MEL-2
  GI50: > 100 µM (inactive)
HT-29
  GI50: > 100 µM (inactive)
KM12
  GI50: > 100 µM (inactive)
KM-20L2
  GI50: > 100 µM (inactive)
SNB-75
  GI50: > 100 µM (inactive)
A549
  GI50: > 100 µM (inactive)
RPMI-8226
  GI50: > 100 µM (inactive)
HL-60
  GI50: > 100 µM (inactive)
NCI-H460
  GI50: > 100 µM (inactive)
DLD-1
  GI50: > 100 µM (inactive)
A498
  GI50: > 100 µM (inactive)
COLO 205
  GI50: > 100 µM (inactive)
MOLT-4
  GI50: > 100 µM (inactive)
DMS-114
  GI50: > 100 µM (inactive)
SF-539
  GI50: > 100 µM (inactive)
HOP-92
  GI50: > 100 µM (inactive)
HCT-15
  GI50: > 100 µM
NCI-H226
  GI50: > 100 µM (inactive)
SF-268
  GI50: > 100 µM (inactive)
SN12C
  GI50: > 100 µM (inactive)
Malme-3M
  GI50: > 100 µM (inactive)
SW-620
  GI50: > 100 µM (inactive)
ACHN
  GI50: > 100 µM (inactive)
LOX IMVI
  GI50: > 100 µM (inactive)
K562
  GI50: > 100 µM (inactive)
OVCAR-4
  GI50: > 100 µM (inactive)
HCC 2998
  GI50: > 100 µM (inactive)
HCT-116
  GI50: > 100 µM (inactive)
U-251
  GI50: > 100 µM (inactive)
LXFL 529
  GI50: > 100 µM (inactive)
NCI-H522
  GI50: > 100 µM (inactive)
SK-OV-3
  GI50: > 100 µM (inactive)
TK-10
  GI50: > 100 µM (inactive)
UACC-62
  GI50: > 100 µM (inactive)
M19-MEL
  GI50: > 100 µM (inactive)
EKVX
  GI50: > 100 µM (inactive)
NCI-H23
  GI50: > 100 µM (inactive)
OVCAR-3
  GI50: > 100 µM (inactive)
SK-MEL-28
  GI50: > 100 µM (inactive)
OVCAR-5
  GI50: > 100 µM (inactive)
786-0
  GI50: > 100 µM (inactive)
HOP-62
  GI50: > 100 µM (inactive)
SF-295
  GI50: > 100 µM (inactive)

## CCCCn1cc[n+](-c2nc3ccccc3n2C)c1
RXF 393
  GI50: > 100 µM (inactive)
OVCAR-8
  GI50: > 100 µM (inactive)
M14
  GI50: > 100 µM (inactive)
RXF 631
  GI50: > 100 µM (inactive)
UO-31
  GI50: > 100 µM (inactive)
CCRF-CEM
  GI50: > 100 µM (inactive)
DMS-273
  GI50: > 100 µM (inactive)
SNB-19
  GI50: > 100 µM (inactive)
SNB-78
  GI50: > 100 µM (inactive)
UACC-257
  GI50: > 100 µM (inactive)
IGROV-1
  GI50: > 100 µM (inactive)
CAKI-1
  GI50: > 100 µM (inactive)
SK-MEL-2
  GI50: > 100 µM (inactive)
HT-29
  GI50: > 100 µM (inactive)
KM-20L2
  GI50: > 100 µM (inactive)
SNB-75
  GI50: 45.4 µM (inactive)
A549
  GI50: > 100 µM (inactive)
RPMI-8226
  GI50: > 100 µM (inactive)
SR
  GI50: > 100 µM (inactive)
HL-60
  GI50: > 100 µM (inactive)
NCI-H460
  GI50: > 100 µM (inactive)
DLD-1
  GI50: > 100 µM (inactive)
HOP-18
  GI50: > 100 µM (inactive)
MOLT-4
  GI50: > 100 µM (inactive)
DMS-114
  GI50: > 100 µM (inactive)
SF-539
  GI50: > 100 µM (inactive)
HCT-15
  GI50: > 100 µM
NCI-H226
  GI50: > 100 µM (inactive)
SF-268
  GI50: > 10 µM (inactive)
SN12C
  GI50: > 100 µM (inactive)
Malme-3M
  GI50: > 100 µM (inactive)
SK-MEL-5
  GI50: > 100 µM (inactive)
SW-620
  GI50: > 100 µM (inactive)
ACHN
  GI50: > 100 µM (inactive)
LOX IMVI
  GI50: > 100 µM (inactive)
K562
  GI50: > 100 µM (inactive)
OVCAR-4
  GI50: > 100 µM (inactive)
HCC 2998
  GI50: > 100 µM (inactive)
HCT-116
  GI50: > 100 µM (inactive)
U-251
  GI50: > 100 µM (inactive)
LXFL 529
  GI50: > 100 µM (inactive)
NCI-H522
  GI50: > 100 µM (inactive)
SK-OV-3
  GI50: > 100 µM (inactive)
TK-10
  GI50: > 100 µM (inactive)
UACC-62
  GI50: > 100 µM (inactive)
EKVX
  GI50: > 100 µM (inactive)
NCI-H23
  GI50: > 100 µM (inactive)
OVCAR-3
  GI50: > 100 µM (inactive)
OVCAR-5
  GI50: > 100 µM (inactive)
HOP-62
  GI50: > 100 µM (inactive)
SF-295
  GI50: > 100 µM (inactive)

## CSCSCC(CO)NC(=O)/C(C)=C\c1c(C)[nH]c(=O)[nH]c1=O (stereo not given)
RXF 393
  GI50: > 250 µM (inactive)
OVCAR-8
  GI50: > 250 µM (inactive)
UO-31
  GI50: > 250 µM (inactive)
CCRF-CEM
  GI50: > 250 µM (inactive)
DMS-273
  GI50: > 250 µM (inactive)
SNB-19
  GI50: 48.3 µM (inactive)
SNB-78
  GI50: > 250 µM (inactive)
UACC-257
  GI50: 170 µM (inactive)
IGROV-1
  GI50: > 250 µM (inactive)
CAKI-1
  GI50: 18.3 µM (inactive)
SK-MEL-2
  GI50: > 250 µM (inactive)
HT-29
  GI50: > 250 µM (inactive)
KM12
  GI50: 200 µM (inactive)
KM-20L2
  GI50: > 250 µM (inactive)
SNB-75
  GI50: > 250 µM (inactive)
A549
  GI50: > 250 µM (inactive)
RPMI-8226
  GI50: > 250 µM (inactive)
HL-60
  GI50: > 250 µM (inactive)
NCI-H460
  GI50: > 250 µM (inactive)
DLD-1
  GI50: > 250 µM (inactive)
A498
  GI50: > 250 µM (inactive)
HOP-18
  GI50: > 250 µM (inactive)
COLO 205
  GI50: > 250 µM (inactive)
MOLT-4
  GI50: > 250 µM (inactive)
XF498
  GI50: > 64.6 µM (inactive)
NCI/ADR-RES
  GI50: > 250 µM (inactive)
DMS-114
  GI50: > 250 µM (inactive)
SF-539
  GI50: > 250 µM (inactive)
HOP-92
  GI50: 20.3 µM (inactive)
HCT-15
  GI50: 225 µM
NCI-H226
  GI50: > 250 µM (inactive)
SF-268
  GI50: > 250 µM (inactive)
SN12C
  GI50: > 250 µM (inactive)
Malme-3M
  GI50: > 250 µM (inactive)
SK-MEL-5
  GI50: > 250 µM (inactive)
SW-620
  GI50: 237 µM (inactive)
LOX IMVI
  GI50: > 250 µM (inactive)
K562
  GI50: > 250 µM (inactive)
OVCAR-4
  GI50: > 250 µM (inactive)
HCC 2998
  GI50: > 250 µM (inactive)
HCT-116
  GI50: > 250 µM (inactive)
U-251
  GI50: > 250 µM (inactive)
NCI-H522
  GI50: > 250 µM (inactive)
SK-OV-3
  GI50: > 250 µM (inactive)
UACC-62
  GI50: > 250 µM (inactive)
M19-MEL
  GI50: > 250 µM (inactive)
EKVX
  GI50: > 250 µM (inactive)
NCI-H23
  GI50: > 250 µM (inactive)
OVCAR-3
  GI50: > 250 µM (inactive)
SK-MEL-28
  GI50: > 250 µM (inactive)
OVCAR-5
  GI50: 207 µM (inactive)
HOP-62
  GI50: > 250 µM (inactive)
SF-295
  GI50: > 250 µM (inactive)
MCF7
  GI50: > 250 µM (inactive)
